As a reminder, the IC50 is the concentration that gives 50% inhibition.

Structures can show the parent of a compound that is named as a salt.

Results on nine molecules are retold here after patent publication US6251944A, “Para-substituted phenylene derivatives” (G. D. Searle & Company, priority 1999, dated 2001).

Assay [1] addresses T1, Human fibrinogen receptor (αIIbβ3) (Homo sapiens, UniProt P05106+P08514).
T1 construct: purified from outdated platelets; from tissue; host or cells: outdated platelets (human)
As to the kind of experiment: Purified IIb/IIIa receptor assay (solid phase receptor assay). To be noted: inhibition of 50% of maximum binding of biotinylated vitronectin; highest concentration tested 1.0×10^-4 M. The protocol: The activity of the compounds of the present invention was tested in the following assays.
Human fibrinogen receptor (αIIbβ3) was purified from outdated platelets. […] Biotinylated human vitronectin was prepared by coupling NHS-biotin from Pierce Chemical Company (Rockford, Ill.) to purified vitronectin as previously described. […] Anti-biotin antibody was obtained from Calbiochem (La Jolla, Calif.). Linbro microtiter plates were obtained from Flow Labs (McLean, Va.). ADP reagent was obtained from Sigma (St. Louis, Mo.).
Solid Phase Receptor Assays
The purified human fibrinogen receptor (αIIbβ3) was diluted from stock solutions to 1.0 μg/mL in Tris-buffered saline containing 1.0 mM Ca^++, Mg^++, and Mn^++, pH 7.4 (TBS^+++). The diluted receptor was immediately transferred to Linbro microtiter plates at 100 μL/well (100 ng receptor/well). The plates were sealed and incubated overnight at 4° C. to allow the receptor to bind to the wells. All remaining steps were at room temperature. The assay plates were emptied and 200 μL of 1% RIA grade BSA in TBS^+++ (TBS^+++ /BSA) were added to block exposed plastic surfaces. Following a 2 hour incubation, the assay plates were washed with TBS^+++ using a 96 well plate washer. Logarithmic serial dilution of the test compound and controls were made starting at a stock concentration of 2 mM and using 2 nM biotinylated vitronectin in TBS^+++ /BSA as the diluent. This premixing of labeled ligand with test (or control) ligand, and subsequent transfer of 50 μL aliquots to the assay plate was carried out with a CETUS Propette robot; the final concentration of the labeled ligand was 1 nM and the highest concentration of test compound was 1.0×10^-4 M. The competition occurred for two hours after which all wells were washed with a plate washer as before. Affinity purified horseradish peroxidase labeled goat anti-biotin antibody was diluted 1:3000 in TBS^+++ /BSA and 125 μL were added to each well. After 30 minutes, the plates were washed and incubated with […]/H2 O2 substrate in 100 mM/L citrate buffer, pH 5.0. The plate was read with a microtiter plate reader at a wavelength of 450 nm and when the maximum-binding control wells reached an absorbance of about 1.0, the final A450 were recorded for analysis. The data were analyzed using a macro written for use with the EXCEL™ spreadsheet program. The mean, standard deviation, and % CV were determined for duplicate concentrations. The mean A450 values were normalized to the mean of four maximum-binding controls (no competitor added) (B-MAX). The normalized values were subjected to a four parameter curve fit algorithm, [Robard et al., Int.

Assay [2] has as its target T2, Human vitronectin receptor(αvβ3) (Homo sapiens, UniProt P05106+P06756).
T2 construct: purified from human placenta; from tissue; host or cells: human placenta
The experiment in a line: Vitronectin adhesion assay (solid phase receptor assay, αvβ3). Particulars: inhibition of 50% of maximum binding of biotinylated vitronectin; highest concentration tested 1.0×10^-4 M; read-out: AvB3 IC50. The procedure: The activity of the compounds of the present invention was tested in the following assays. […] Assay buffer, OPD substrate tablets, and RIA grade BSA were obtained from Sigma (St. Louis, Mo.). Anti-biotin antibody was obtained from Calbiochem (La Jolla, Calif.). Linbro microtiter plates were obtained from Flow Labs (McLean, Va.). ADP reagent was obtained from Sigma (St. Louis, Mo.). […] The purified human vitronectin receptor (αvβ3) was diluted from stock solutions to 1.0 μg/mL in Tris-buffered saline containing 1.0 mM Ca^++, Mg^++, and Mn^++, pH 7.4 (TBS^+++). The diluted receptor was immediately transferred to Linbro microtiter plates at 100 μL/well (100 ng receptor/well). The plates were sealed and incubated overnight at 4° C. to allow the receptor to bind to the wells. All remaining steps were at room temperature. The assay plates were emptied and 200 μL of 1% RIA grade BSA in TBS^+++ (TBS^+++ /BSA) were added to block exposed plastic surfaces. Following a 2 hour incubation, the assay plates were washed with TBS^+++ using a 96 well plate washer. […] The competition occurred for two hours after which all wells were washed with a plate washer as before. […] After 30 minutes, the plates were washed and incubated with OPD/H2 O2 substrate in 100 mM/L Citrate buffer, pH 5.0. […] The data were analyzed using a macro written for use with the EXCEL™ spreadsheet program. The mean, standard deviation, and % CV were determined for duplicate concentrations. The mean A450 values were normalized to the mean of four maximum-binding controls (no competitor added)(B-MAX). The normalized values were subjected to a four parameter curve fit algorithm [Rodbard et al., Int. […] Ser.

T2 sequence (P06756 31-889 limits assumed): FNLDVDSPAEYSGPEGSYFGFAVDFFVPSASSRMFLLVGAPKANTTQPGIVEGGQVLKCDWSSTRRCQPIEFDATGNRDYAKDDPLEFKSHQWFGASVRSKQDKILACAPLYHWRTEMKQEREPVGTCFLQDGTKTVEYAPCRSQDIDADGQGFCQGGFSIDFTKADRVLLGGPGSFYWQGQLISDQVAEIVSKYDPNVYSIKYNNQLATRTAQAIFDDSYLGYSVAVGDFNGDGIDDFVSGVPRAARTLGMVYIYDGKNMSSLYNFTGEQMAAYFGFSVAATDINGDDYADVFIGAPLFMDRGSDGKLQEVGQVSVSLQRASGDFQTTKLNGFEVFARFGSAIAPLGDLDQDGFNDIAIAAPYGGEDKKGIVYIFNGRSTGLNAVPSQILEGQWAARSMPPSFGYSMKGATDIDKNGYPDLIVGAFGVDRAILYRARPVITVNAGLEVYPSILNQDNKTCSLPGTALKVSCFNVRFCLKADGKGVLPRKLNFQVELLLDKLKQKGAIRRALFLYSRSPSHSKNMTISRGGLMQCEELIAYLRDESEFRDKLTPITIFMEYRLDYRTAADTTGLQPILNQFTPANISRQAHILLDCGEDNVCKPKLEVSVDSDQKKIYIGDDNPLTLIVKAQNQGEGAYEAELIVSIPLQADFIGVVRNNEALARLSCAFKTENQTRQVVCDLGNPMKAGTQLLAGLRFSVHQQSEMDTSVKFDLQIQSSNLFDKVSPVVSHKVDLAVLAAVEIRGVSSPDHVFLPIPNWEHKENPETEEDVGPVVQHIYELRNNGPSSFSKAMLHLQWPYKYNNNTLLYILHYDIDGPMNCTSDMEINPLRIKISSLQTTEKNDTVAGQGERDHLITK
T2 sequence (P06756 891-1048 limits assumed): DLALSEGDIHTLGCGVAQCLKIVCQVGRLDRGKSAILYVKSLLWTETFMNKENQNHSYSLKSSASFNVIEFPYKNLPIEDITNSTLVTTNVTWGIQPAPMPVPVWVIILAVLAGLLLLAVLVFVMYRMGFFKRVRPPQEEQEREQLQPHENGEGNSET
T2 sequence (P05106 27-788): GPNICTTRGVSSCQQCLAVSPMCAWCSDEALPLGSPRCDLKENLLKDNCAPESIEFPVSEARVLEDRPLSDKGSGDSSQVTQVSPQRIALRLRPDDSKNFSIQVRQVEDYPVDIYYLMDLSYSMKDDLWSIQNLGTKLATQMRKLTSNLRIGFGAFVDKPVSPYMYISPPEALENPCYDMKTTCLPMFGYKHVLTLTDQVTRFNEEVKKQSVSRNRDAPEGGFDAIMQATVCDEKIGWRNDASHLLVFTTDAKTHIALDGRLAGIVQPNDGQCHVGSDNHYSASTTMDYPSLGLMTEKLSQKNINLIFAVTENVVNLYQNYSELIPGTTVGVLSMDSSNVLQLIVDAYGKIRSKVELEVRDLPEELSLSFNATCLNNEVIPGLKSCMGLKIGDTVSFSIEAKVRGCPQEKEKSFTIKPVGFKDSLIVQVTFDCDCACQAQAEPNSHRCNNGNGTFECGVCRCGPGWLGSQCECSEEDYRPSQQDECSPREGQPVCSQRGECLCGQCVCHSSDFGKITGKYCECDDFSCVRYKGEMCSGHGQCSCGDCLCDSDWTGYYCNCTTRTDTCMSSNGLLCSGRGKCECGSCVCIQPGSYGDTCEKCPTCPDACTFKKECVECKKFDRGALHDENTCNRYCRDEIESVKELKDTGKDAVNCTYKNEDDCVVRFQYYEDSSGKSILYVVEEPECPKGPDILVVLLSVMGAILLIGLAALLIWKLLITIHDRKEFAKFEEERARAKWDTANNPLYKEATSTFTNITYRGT
T1 sequence (P08514 32-887 limits assumed): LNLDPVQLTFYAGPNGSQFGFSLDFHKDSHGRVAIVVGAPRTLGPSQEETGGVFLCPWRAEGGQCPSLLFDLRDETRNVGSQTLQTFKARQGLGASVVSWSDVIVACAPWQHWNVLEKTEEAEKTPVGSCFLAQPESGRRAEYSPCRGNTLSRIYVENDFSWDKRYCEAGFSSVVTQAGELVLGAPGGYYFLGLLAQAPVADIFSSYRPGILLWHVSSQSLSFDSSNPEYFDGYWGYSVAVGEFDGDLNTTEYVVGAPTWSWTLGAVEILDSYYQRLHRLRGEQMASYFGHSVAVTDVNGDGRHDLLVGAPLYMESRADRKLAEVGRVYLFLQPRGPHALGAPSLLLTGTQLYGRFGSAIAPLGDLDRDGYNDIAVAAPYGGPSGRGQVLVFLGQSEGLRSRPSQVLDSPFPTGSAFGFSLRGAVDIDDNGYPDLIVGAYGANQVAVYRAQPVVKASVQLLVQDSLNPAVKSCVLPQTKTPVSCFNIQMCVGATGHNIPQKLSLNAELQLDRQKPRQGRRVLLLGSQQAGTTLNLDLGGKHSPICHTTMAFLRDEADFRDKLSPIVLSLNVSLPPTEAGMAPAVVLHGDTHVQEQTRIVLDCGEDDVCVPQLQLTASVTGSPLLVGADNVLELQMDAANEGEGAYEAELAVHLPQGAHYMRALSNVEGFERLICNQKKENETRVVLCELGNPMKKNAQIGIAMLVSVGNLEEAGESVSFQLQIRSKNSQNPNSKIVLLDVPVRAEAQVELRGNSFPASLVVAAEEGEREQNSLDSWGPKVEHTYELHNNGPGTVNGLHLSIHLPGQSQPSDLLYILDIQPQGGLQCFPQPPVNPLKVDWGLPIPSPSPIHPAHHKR
T1 sequence (P08514 891-1039 limits assumed): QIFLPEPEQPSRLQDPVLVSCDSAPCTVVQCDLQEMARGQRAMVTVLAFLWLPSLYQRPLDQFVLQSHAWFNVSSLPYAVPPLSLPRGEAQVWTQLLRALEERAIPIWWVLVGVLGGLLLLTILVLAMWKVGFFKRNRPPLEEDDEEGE
T1 sequence (P05106 27-788): as the sequence (P05106 27-788) above

As for `N=C(N)Nc1cccc(C(=O)Nc2ccc(CCC(=O)O)c(CCC(=O)O)c2)c1` [Example 100, 4-[[[3-[(aminoiminomethyl)amino]phenyl]carbonyl]amino]benzene-1,2-dipropanoic Acid, trifluoroacetate Salt], the values for the IC50 in assay [1] and in assay [2] were 0.044 µM and 0.006 µM, respectively.

Take `CC(C)(C)CC(=O)NC(Cc1ccc(NC(=O)c2cccc(NC(=N)N)c2)cc1)C(=O)O` (stereo not drawn) [Example 109, 4-[[[3-[(aminoiminomethyl)amino]phenyl]carbonyl]amino]-N-(3,3-dimethyl-1-oxobutyl)phenylalanine, trifluoroacetate Salt]: the IC50 in assay [1] was 0.111 µM; in assay [2] it was 0.005 µM.

With `CC(C)(C)CC(=O)NC(Cc1ccc(NC(=O)c2cc(NC(=N)N)cc(C(F)(F)F)c2)cc1)C(=O)O` (stereo not drawn) [Example 110, 4-[[[3-[(aminoiminomethyl)amino]-5-(trifluoromethyl)phenyl]carbonyl]amino]-N-(3,3-dimethyl-1-oxobutyl)phenylalanine, trifluoroacetate Salt], the IC50 in assay [1] amounted to 0.326 µM; in assay [2] it was 0.004 µM.

As for `COc1cc(NC(=O)c2cccc(NC(=N)N)c2)ccc1CC(NC(=O)OC(C)C)C(=O)O` (stereo not drawn) [Example 113, 4-[[[3-[(aminoiminomethyl)amino]phenyl]carbonyl]amino]-2-methoxy-N-[(1-methylethoxy)carbonyl]phenylalanine, trifluoroacetate salt, monohydrate], the IC50 in assay [1] turned out to be 0.253 µM; in assay [2], 0.001 µM.

On to `COc1cc(NC(=O)c2cccc(NC(=N)N)c2)ccc1OCC(=O)O` [Example 118, [4-[[[3-[(aminoiminomethyl)amino]phenyl]carbonyl]amino]-2-methoxyphenoxy]acetic Acid, trifluoroacetate Salt], for which the IC50 in assay [1] turned out to be 0.054 µM; in assay [2], 0.003 µM.

Consider `N=C(N)Nc1cccc(C(=O)Nc2ccc(CC(NS(=O)(=O)/C=C/c3ccccc3)C(=O)O)cc2)c1` (stereo not drawn) [Example 123, 4-[[[3-[(aminoiminomethyl)amino]phenyl]carbonyl]amino]-N-[(2-phenylethenyl)sulfonyl]phenylalanine, trifluoroacetate Salt], for which the IC50 was determined as 0.0015 µM in assay [1] and 0.0005 µM in assay [2].

`CC(C)(C)NC(=O)NC(Cc1ccc(NC(=O)c2cccc(NC(=N)N)c2)cc1)C(=O)O` (stereo not drawn) [Example 124, 4-[[[3-[(aminoiminomethyl)amino]phenyl]carbonyl)amino]-N-[[(1,1-dimethylethyl)amino]carbonyl]phenylalanine, trifluoroacetate Salt]: the IC50 in assay [1] stood at 0.285 µM; in assay [2], 0.003 µM.

In the case of `CC(C)OC(=O)NC(Cc1ccc(NC(=O)c2cccc(C(=O)NC(=N)N)c2)cc1)C(=O)O` (stereo not drawn) [Example 128, 4-[[[3-[[(aminoiminomethyl)amino]carbonyl]phenyl]carbonyl]amino]-N-[(1-methylethoxy)carbonyl]phenylalanine, trifluoroacetate Salt], the IC50 in assay [1] came out at 0.02 µM; in assay [2] it was 0.216 µM.

For the molecule `CCC(Cc1ccc(NC(=O)c2cccc(NC(=N)N)c2)cc1)C(=O)O` (stereo not drawn) [Example 129, 4-[[[3-[(aminoiminomethyl)amino]phenyl]carbonyl]amino]-α-ethylbenzenepropanoic Acid, trifluoroacetate Salt], the IC50 in assay [1] worked out at 5.26 µM; in assay [2], 0.265 µM.
